Results on two compounds are retold here after patent publication US10997871B2, “Contractile function measuring devices, systems, and methods of use thereof” (President and Fellows of Harvard College, priority 2014, dated 2021).

In experiment [1] the test system is cardiac tissue. The note with it: cited from earlier work.
The subject of experiment [2] is cardiac tissue. Put plainly: optogenetic muscle thin film contractile assay, frequency and dose-dependent response of drug-treated tissue. The class given is cell-based. The text has this: The system 300 can incorporate the system 290. The system 300 can be substantially similar in structure and function to the systems discussed above, except for the distinctions noted herein. Therefore, like reference numbers represent like structures. The system 300 can include a lens 152 disposed above the platform 222 and a C-mount lens 302 (e.g., a 1× lens) disposed above the lens 152. The system 300 can further include a sensor 304 (e.g., a 100 frames per second complementary metal oxide semiconductor (CMOS) camera, or the like) disposed above the lens 302. The components 152, 302, 304 can be aligned along the vertical axis 164.
The system 300 can include mirror 306 (e.g., a mirror with an oblique angle), a filter 308 (e.g., an LP filter, such as 776LP), and a light source 310 aligned along an axis 312 substantially perpendicular to the vertical axis 164. Light imparted from the light source 310 can be directed by the mirror 306 at the tissue structures 224. The light can further be directed at the sensor 304. The system 300 provides a combination of an optogenetic tissue structure and an optical mapping system setup, including bright field microscopy for optogenetic tissue structures with the sensor 304 and red light illumination from the filter 308.
124 muscle thin films were tested on 15 chips or platforms using three harvests. The error bar indicates a standard error of mean and the shading indicates approximately 95% confidence limits. […] Thus, the independently paced optogenetic muscle thin films enable higher throughput assays to investigate the frequency-dependent response.
As an example, quinidine and verapamil (both frequency-dependent) were tested for frequency and dose-dependent response in cardiac tissue. In particular, optogenetic muscle thin films in a contractile assay were used to recapitulate frequency and dose dependent mechanical responses of drug-treated tissue. In particular, FIGS. 61 and 62 show the pacing frequency, change in spontaneous beating rate frequency, change in twitch stress, and change in maximum Dt/dt for quinidine and verapamil.

`C=C[C@H]1C[N@@]2CC[C@H]1C[C@@H]2[C@@H](O)c1ccnc2ccc(OC)cc12` [quinidine]: the “effect on myocardial contractility” value in experiment [1] (when given in therapeutic doses, general statement) is listed as “does not directly affect myocardial contractility”.
Regarding `COc1ccc(CCN(C)CCCC(C#N)(c2ccc(OC)c(OC)c2)C(C)C)cc1OC` (centres unmarked) [verapamil], in experiment [2] (at a low frequency with relatively low concentration, optical pacing), the “1:1 coupling” value was “low”. Besides, the “inotropic effect (twitch stress, contractility)” value in experiment [2] (comparison of verapamil with quinidine) was “stronger negative inotropic effect than quinidine”. In experiment [2] (drug-treated cardiac tissue), the spontaneous beating rate entry was “increase”. In addition, the “effect on calcium handling” value in experiment [1] (general statement explaining the inotropic result) is recorded as “directly affects calcium handling”.
